Measurements published in publication PMC8546428, “Convergent olfactory trace amine-associated receptors detect biogenic polyamines with distinct motifs via a conserved binding site” (The Journal of Biological Chemistry, 2021).
Positions count from the first letter of the chain named.

Experiments:
sTAAR365 E7.36D = target: T1, sTAAR365 E7.36D (Petromyzon marinus, UniProt A0A678XMK4, E292D); test: cell-based
T1 sequence (A0A678XMK4 1-365 E292D): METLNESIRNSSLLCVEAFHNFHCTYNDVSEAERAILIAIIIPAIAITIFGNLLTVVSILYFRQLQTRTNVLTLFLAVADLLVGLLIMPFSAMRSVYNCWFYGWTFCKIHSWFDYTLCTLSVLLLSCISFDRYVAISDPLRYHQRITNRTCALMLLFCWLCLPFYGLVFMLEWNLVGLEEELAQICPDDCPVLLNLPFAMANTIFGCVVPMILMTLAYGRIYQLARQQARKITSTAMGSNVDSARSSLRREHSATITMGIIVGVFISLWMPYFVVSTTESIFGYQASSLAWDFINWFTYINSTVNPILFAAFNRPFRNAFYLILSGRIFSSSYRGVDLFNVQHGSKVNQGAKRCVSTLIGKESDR

sTAAR365 E7.36A = target: T2, sTAAR365 E7.36A (Petromyzon marinus, UniProt A0A678XMK4, E292A); test: cell-based
T2 sequence (A0A678XMK4 1-365 E292A): T1 sequence (A0A678XMK4 1-365 E292D) with D292A

sTAAR365 W7.40Y = target: T3, sTAAR365 W7.40Y (Petromyzon marinus, UniProt A0A678XMK4, W296Y); test: cell-based
T3 sequence (A0A678XMK4 1-365 W296Y): T1 sequence (A0A678XMK4 1-365 E292D) with D292E, W296Y

sTAAR365 Y6.51F = target: T4, sTAAR365 Y6.51F (Petromyzon marinus, UniProt A0A678XMK4, Y272F); test: cell-based
T4 sequence (A0A678XMK4 1-365 Y272F): T1 sequence (A0A678XMK4 1-365 E292D) with Y272F, D292E

Rat TAAR9 = target: T5, Rat TAAR9 (Rattus norvegicus, UniProt Q923Y6); test: CRE-luciferase reporter assay in Hana3A; type: cell-based; conditions: rat TAAR9, ligand 1 mM, Fig. 1B
T5 construct: expressed in transfected cells; host or cells: Hana3A (HEK293-derived)
T5 sequence (Q923Y6 1-338): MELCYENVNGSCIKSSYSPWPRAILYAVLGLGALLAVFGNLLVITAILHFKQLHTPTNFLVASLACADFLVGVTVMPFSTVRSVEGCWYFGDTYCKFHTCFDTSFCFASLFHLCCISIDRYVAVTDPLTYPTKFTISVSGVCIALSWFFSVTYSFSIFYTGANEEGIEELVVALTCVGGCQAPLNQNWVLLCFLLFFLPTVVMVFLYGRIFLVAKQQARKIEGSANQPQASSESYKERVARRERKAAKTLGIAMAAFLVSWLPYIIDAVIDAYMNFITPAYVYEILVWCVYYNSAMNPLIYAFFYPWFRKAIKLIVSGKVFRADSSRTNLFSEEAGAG
Method: We examined the response of TAAR9s from rat, human, hamster, and rabbit to the stimulation of 1 mM amines using a well-established cAMP response element (CRE)-driven luciferase reporter assay based on Golf-mediated cAMP signal transduction ([5], [24]). In addition to the four mTAAR9 ligands, we included putrescine, which is also a polyamine and precursor of spermine/spermidine biosynthesis.
Mammalian TAAR9 plasmids were transfected into Hana3A cells along with a cAMP-dependent luciferase reporter plasmid (CRE-Luc). Transfected cells were incubated with tested ligands, and luciferase activity was quantified with a […] substrate as a reporter for Golf-mediated TAAR activation. Luciferase activity was indicated by the luminescence value and normalized as a fold-increase over the response to the vehicle stimuli (mean ± S.D., n = 3). […] B, Hana3A cells expressing mouse, rat, human, cat, hamster, and rabbit TAAR9 were incubated with either vehicle or tested ligands (1 mM) and assayed for reporter activity. C, concentration-dependent luciferase activity in Hana3A cells expressing mouse, rat, and cat TAAR9 receptors stimulated with cadaverine, spermidine, and spermine.
The firefly luciferase and renilla luciferase activity was measured with a BioTek microplate reader following manufacturer’s instructions.

SMILES: NCCCCCN [cadaverine]
- EC50 (sTAAR365 E7.36D): 0.007 ± 0.002 µM
- EC50 (sTAAR365 E7.36A): 0.05 ± 0.02 µM
- EC50 (sTAAR365 W7.40Y): 0.127 ± 0.041 µM
- EC50 (sTAAR365 Y6.51F): 1.7 ± 0.9 µM
- reporter activity (activation of TAAR9) (Rat TAAR9): maximum responses

SMILES: NCCCNCCCCNCCCN [spermine]
- EC50 (sTAAR365 E7.36D): > 500 µM
- EC50 (sTAAR365 E7.36A): > 500 µM
- EC50 (sTAAR365 W7.40Y): 530 ± 259 µM
- EC50 (sTAAR365 Y6.51F): 114 ± 20 µM
- reporter activity (activation of TAAR9) (Rat TAAR9): maximum responses

SMILES: NCCCCN [putrescine]
- EC50 (sTAAR365 E7.36D): 72 ± 14 µM
- EC50 (sTAAR365 E7.36A): 420 ± 87 µM
- EC50 (sTAAR365 W7.40Y): > 500 µM
- EC50 (sTAAR365 Y6.51F): > 500 µM
- reporter activity (activation of TAAR9) (Rat TAAR9): not activated
